# What was measured:
# [1] = system: skin-derived stem cells harvested from human foreskin; experiment: Culture of human foreskin skin-derived stem cells in presence and absence of LIF; format: cell-based; details: proliferating non-adherent cultures with EGF and FGF2
# Excerpt: In contrast to human central nervous system derived stem cells, the survival and proliferation of human skin-derived stem cells is not dependent on LIF.
# We cultured the cell suspension, as previously described, in non-adherent vessels in the presence of EGF and FGF2. […] The clusters are morphologically indistinguishable from skin-derived stem cells derived from rodent tissue. Skin-derived clusters are loosely compacted, and the cells can be readily dissociated manually without the use of proteases. Such characteristics appear to distinguish skin-derived clusters from CNS-derived neurospheres. […] Furthermore, we have currently passaged and maintained foreskin derived stem cells as proliferating cultures for greater than three months.
# skin-derived MSCs [2] = experiment: Pharmacological agents added to proliferating skin-derived MSCs (morphology, survival); format: cell-based, mouse; details: plated three days in proliferation medium containing FGF, medium supplemented with agent
# Excerpt: FIG. 10 is a series of photographs showing the effect of various pharmacological agents on mouse skin-derived MSCs.
# We tested the ability of pharmacological agents to alter this phenotype.
# skin-derived MSCs [3] = experiment: Endodermal marker expression of skin-derived MSCs by RT-PCR after plating with nicotinamide; format: cell-based; details: cells dissociated and plated in media supplemented with nicotinamide
# Method: Skin-derived MSCs were cultured under standard proliferation conditions in the presence or absence of B-27 supplement. Differentiation was induced by plating cells in the presence of nicotinamide, and the resulting differentiated cells were analyzed by quantitative RT-PCR. […] Although cells proliferated in either the presence or the absence of B27 supplement can be induced to express endodermal markers, cells proliferated in B27 appear to express such markers to a higher degree.
# Our recent discovery that MSCs maintain the potential to produce both neural and non-neural cell types has been accompanied by the discovery that non-neural stem cells such as bone marrow-derived stem cells (i.e., stromal cells or mesenchymal stem cells) also have the potential to produce a wide variety of neural and non-neural stem cells (Ferrari et al., Science 279:1528-1530, 1998; Gussoni et al., Nature 401:390-394, 1999; Peterson et al., Science 284:1168-1170, 1999; Pereira et al., Proc. Natl. Acad. Sci. USA 92:4857-4861, 1995; Prockop, Science 276:71-74, 1997; Kessler and Byrne, Annu. Rev. Physiol. 61:219-242, 1999; Pittenger et al., Science 284:143-147). […] After several days of co-culture the skin-derived stem cells were analyzed based on both morphology and on protein expression. […]
# skin derived MSCs = experiment: Neuronal differentiation of skin-derived MSCs plated in 5% serum with added agent, anti-neurofilament immunocytochemistry; format: cell-based; details: 5% serum plus agent, compared with serum alone
# Method: Cells were dissociated and plated in the presence of either 5% FBS, 5% FBS+retinoic acid (RA), or 5% FBS+BMP7. Cells were analyzed immunocytochemically for expression of neurofilament M (NFM).
# Skin derived MSCs were obtained and cultured as described in detail above. To induce differentiation, cells were plated in the presence of 5% serum supplemented with either retinoic acid or BMP-7. Neuronal differentiation was analyzed using a polyclonal anti-neurofilament antibody.
molecule,measurement,setting,value
LIF: cytokine added to culture medium (R&D Systems),"proliferation, differentiation or survival characteristics in presence and absence of LIF",[1],no significant differences
COc1cccc(-c2cc(=O)c3ccccc3o2)c1N [PD098059],effect on phenotype of proliferating skin-derived MSCs,skin-derived MSCs [2],caused proliferating cells to flatten and differentiate
C[S+]([O-])c1ccc(-c2nc(-c3ccncc3)c(-c3ccc(F)cc3)[nH]2)cc1 (centres unmarked) [SB203580],effect on phenotype of proliferating skin-derived MSCs,skin-derived MSCs [2],no observed effect
NC(=O)c1cccnc1 [nicotinamide],"expression of endodermal markers (GATA-4, HNF3α, Isl1, AFP, HNF3β, Ngn3, Pdx-1, Insulin)",skin-derived MSCs [3],express markers of endodermal differentiation
"BMP-7: therapeutic protein (growth factor) added to 5% serum to induce differentiation (protein, UniProt P18075 293-431, looked up) Bone morphogenetic protein 7: STGSKQRSQNRSKTPKNQEALRMANVAENSSSDQRQACKKHELYVSFRDLGWQDWIIAPEGYAAYYCEGECAFPLNSYMNATNHAIVQTLVHFINPETVPKPCCAPTQLNAISVLYFDDSSNVILKKYRNMVVRACGCH",number and complexity of neurofilament positive cells,skin derived MSCs,enhances the number and complexity of neurofilament positive cells
